Laboratory results reported in US7879876B2, “Sulfonamide derivatives and use thereof for the modulation of metalloproteinases” (Merck Serono SA, priority 2005, dated 2011).

Key:
MMP13 = MMP13 (Homo sapiens, UniProt P45452); experiment: MMP13 inhibition (Table 1); format: biochemical; settings: read-out: percentage inhibition MMP13
[1] = test system: IL-2-induced peritoneal recruitment of lymphocytes; experiment: IL-2-induced peritoneal recruitment of lymphocytes; format: in vivo, C3H/HEN mice; settings: Mus musculus, Lymphocyte, po; 3 mg/kg p.o., 15 min prior to IL-2; mice; 24 h after IL-2
Method: Administration of IL-2 intraperitoneally causes migration of lymphocytes into the intraperitoneal cavity. This is a model for the cellular migration that occurs during inflammation.
C3H/HEN mice (Elevage Janvier, France) were intraperitoneally injected with IL-2 (Serono Pharmaceutical Research Institute, 20 μg/kg, in saline). Compounds of the invention were suspended in 0.5% carboxymethylcellulose (CMC)/0.25% tween-20 and were administered by s.c. or p.o. route (10 ml/kg) 15 min prior to administration of IL-2.
Twenty-four hours after administration of IL-2, peritoneal white blood cells were collected by 3 successive lavages of the peritoneal cavity with 5 ml phosphate buffered saline (PBS)-1 mM EDTA (+4° C.). The suspension was centrifuged (1700 g×10 min at +4° C.). The resulting pellet was suspended in 1 ml PBS-1 mM EDTA.
Lymphocytes were identified and counted using a Beckman/Coulter counter.
The animals were divided into 6 groups (6 mice each group):
Group 1: (baseline) received 0.5% CMC/0.25% tween-20 (vehicle of compound of the invention) and saline (vehicle of IL-2);
Group 2: (control IL-2) received 0.5% CMC/0.25% tween-20 and injection of IL-2;
Group 3: Experimental group (Compound of the invention Dose 1) received a compound of the invention and injection of IL-2;
Group 4: Experimental group (Compound of the invention Dose 2) received a compound of the invention and injection of IL-2;
Group 5: Experimental group (Compound of the invention Dose 3) received a compound of the invention and injection of IL-2;
Group 6: Reference group received reference compound dexamethasone and injection of IL-2.
Inhibition of lymphocyte recruitment was calculated as follows:
Where Ly 1=Number of lymphocytes in group 1 (E3/μl), Ly 2=Number of lymphocytes in group 2 (E3/μl), Ly X=Number of lymphocytes in group X (3-5) (E3/μl).

inhibition at 0.1 µM (MMP13) [%] | inhibition at 5 µM (MMP13) [%] | SMILES | inhibition in vivo at 3 mg/kg [1] [%]
15 | 97 | O=CN(O)C(CCc1ccccc1)CS(=O)(=O)N1CCc2ccccc2C1 (centres unmarked) [Example 1, N-{1-[(3,4-dihydroisoquinolin-2(1H)-ylsulfonyl)methyl]-3-phenylpropyl}-N-hydroxyformamide] | –
17 | 98 | CC1(C)OC[C@H](C(CS(=O)(=O)N2CCc3ccccc3C2)N(O)C=O)O1 (stereo partly drawn) [Example 2, N-{2-(3,4-dihydroisoquinolin-2(1H)-ylsulfonyl)-1-[(4S)-2,2-dimethyl-1,3-dioxolan-4-yl]ethyl}-N-hydroxyformamide] | 16 ± 13
6 | 98 | CCCCCC(CS(=O)(=O)N1CCc2ccccc2C1)N(O)C=O (centres unmarked) [Example 3, N-{1-[(3,4-dihydroisoquinolin-2(1H)-ylsulfonyl)methyl]hexyl}-N-hydroxyformamide] | –
0 | 80 | O=CN(O)C(CS(=O)(=O)N1CCc2ccccc2C1)C1CC1 (centres unmarked) [Example 4, N-[1-cyclopropyl-2-(3,4-dihydroisoquinolin-2(1H)-ylsulfonyl)ethyl]-N-hydroxyformamide] | –
– | 93 | O=CN(O)C(CS(=O)(=O)N1CCc2ccccc2C1)c1cccnc1 (centres unmarked) [Example 10, N-[2-(3,4-dihydroisoquinolin-2(1H)-ylsulfonyl)-1-pyridin-3-ylethyl]-N-hydroxyformamide] | –
– | 48 | COc1cc2c(cc1OC)CN(S(=O)(=O)CC(CCc1ccccc1)N(O)C=O)CC2 (centres unmarked) [Example 12, N-(1-{[(6,7-dimethoxy-3,4-dihydroisoquinolin-2(1H)-yl)sulfonyl]methyl}-3-phenylpropyl)-N-hydroxyformamide] | –
28 | 96 | COc1ccc(C(CS(=O)(=O)N2CCc3ccccc3C2)N(O)C=O)cn1 (centres unmarked) [Example 13, N-[2-(3,4-dihydroisoquinolin-2(1H)-ylsulfonyl)-1-(6-methoxypyridin-3-yl)ethyl]-N-hydroxyformamide] | –
– | – | CC1(C)OC[C@H](C(CS(=O)(=O)N2Cc3ccccc3C2)N(O)C=O)O1 (stereo partly drawn) [Example 16, N-{2-(1,3-dihydro-2H-isoindol-2-ylsulfonyl)-1-[(4S)-2,2-dimethyl-1,3-dioxolan-4-yl]ethyl}-N-hydroxyformamide] | 44 ± 7
– | – | CC(C)c1ccc2c(c1)CCN(S(=O)(=O)CC([C@H]1COC(C)(C)O1)N(O)C=O)C2 (stereo partly drawn) [Example 18, N-{1-[(4S)-2,2-dimethyl-1,3-dioxolan-4-yl]-2-[(6-isopropyl-3,4-dihydroisoquinolin-2(1H)-yl)sulfonyl]ethyl}-N-hydroxyformamide] | 39 ± 7
– | – | CC1(C)OC[C@H](C(CS(=O)(=O)N2CCc3ccc(Cl)cc3C2)N(O)C=O)O1 (stereo partly drawn) [Example 19, N-{2-[(7-chloro-3,4-dihydroisoquinolin-2(1H)-yl)sulfonyl]-1-[(4S)-2,2-dimethyl-1,3-dioxolan-4-yl]ethyl}-N-hydroxyformamide] | 62 ± 9
– | – | O=CN(O)C(CS(=O)(=O)N1CCc2ccc(Cl)cc2C1)C1CCCC1 (centres unmarked) [Example 21, N-{2-[(7-chloro-3,4-dihydroisoquinolin-2(1H)-yl)sulfonyl]-1-cyclopentylethyl}-N-hydroxyformamide] | 43 ± 9
– | – | O=CN(O)C(CS(=O)(=O)N1CCc2cc(C(F)(F)F)ccc2C1)C1CCCC1 (centres unmarked) [Example 25, N-(1-cyclopentyl-2-{[6-(trifluoromethyl)-3,4-dihydro-isoquinolin-2(1H)-yl]sulfonyl}ethyl)-N-hydroxyformamide] | 37 ± 7
– | – | O=CN(O)[C@H](CS(=O)(=O)N1CCc2ccc(C(F)(F)F)cc2C1)[C@H]1CCCO1 [Example 27, N-hydroxy-N-((1S)-1-[(2R)-tetrahydrofuran-2-yl]-2-{[7-(trifluoromethyl)-3,4-dihydroisoquinolin-2(1H)-yl]sulfonyl}ethyl)formamide] | 46 ± 9
– | – | CC1(C)OC[C@H](C(CS(=O)(=O)N2CCc3ccc(C(F)(F)F)cc3C2)N(O)C=O)O1 (stereo partly drawn) [Example 28, N-(1-[(4S)-2,2-dimethyl-1,3-dioxolan-4-yl]-2-{[7-(trifluoro-methyl)-3,4-dihydroisoquinolin-2(1H)-yl]sulfonyl}ethyl)-N-hydroxyformamide] | 62 ± 5
– | – | O=CN(O)[C@H](CS(=O)(=O)N1Cc2ccc(F)cc2C1)[C@H]1CCCO1 [Example 29, N-{(1S)-2-[(5-fluoro-1,3-dihydro-2H-isoindol-2-yl)-sulfonyl]-1-[(2R)-tetrahydrofuran-2-yl]ethyl}-N-hydroxyformamide] | 29 ± 11
– | – | CC(C)(Cc1ccccc1)C(CS(=O)(=O)N1CCc2cc(C(F)(F)F)ccc2C1)N(O)C=O (centres unmarked) [Example 31, N-[2,2-dimethyl-3-phenyl-1-({[6-(trifluoromethyl)-3,4-dihydroisoquinolin-2(1H)-yl]sulfonyl}methyl)propyl]-N-hydroxyformamide] | 31 ± 10
– | – | CCC(CC)C(CS(=O)(=O)N1CCc2cc(C(C)C)ccc2C1)N(O)C=O (centres unmarked) [Example 35, N-(2-ethyl-1-{[(6-isopropyl-3,4-dihydroisoquinolin-2(1H)-yl)sulfonyl]methyl}butyl)-N-hydroxyformamide] | 50 ± 8
– | – | CC(C)(C)CC(CS(=O)(=O)N1CCc2cc(Cl)c(Cl)cc2C1)N(O)C=O (centres unmarked) [Example 42, N-(1-{[(6,7-dichloro-3,4-dihydroisoquinolin-2(1H)-yl)-sulfonyl]methyl}-3,3-dimethylbutyl)-N-hydroxyformamide] | 40 ± 10
– | – | O=CN(O)C(CO)CS(=O)(=O)N1CCc2cc(Cl)c(Cl)cc2C1 (centres unmarked) [Example 49, N-[2-[(6,7-dichloro-3,4-dihydroisoquinolin-2(1H)-yl)-sulfonyl]-1-(hydroxymethyl)ethyl]-N-hydroxyformamide] | 16 ± 12
– | – | CC(C)C(CS(=O)(=O)N1CCc2ccc(-c3ccc(F)cc3)cc2C1)N(O)C=O (centres unmarked) [Example 50, N-[1-({[7-(4-fluorophenyl)-3,4-dihydroisoquinolin-2(1H)-yl]sulfonyl}methyl)-2-methylpropyl]-N-hydroxyformamide] | 32 ± 4
– | – | CC(C)(CS(=O)(=O)N1CCc2ccc(Br)cc2C1)N(O)C=O [Example 56, N-{2-[(7-bromo-3,4-dihydroisoquinolin-2(1H)-yl)sulfonyl]-1,1-dimethylethyl}-N-hydroxyformamide] | 37 ± 8
– | – | O=CN(O)C(COCc1ccccc1)CS(=O)(=O)N1CCc2ccc(C(F)(F)F)cc2C1 (centres unmarked) [Example 59, N-[2-(benzyloxy)-1-({[7-(trifluoromethyl)-3,4-dihydro-isoquinolin-2(1H)-yl]sulfonyl}methyl)ethyl]-N-hydroxyformamide] | 55 ± 9
– | – | O=CN(O)C(COc1ccccc1)CS(=O)(=O)N1CCc2ccc(Cl)cc2C1 (centres unmarked) [Example 61, N-[2-[(7-chloro-3,4-dihydroisoquinolin-2(1H)-yl)sulfonyl]-1-(phenoxymethyl)ethyl]-N-hydroxyformamide] | 45 ± 9
– | – | O=CN(O)C1(CS(=O)(=O)N2CCc3ccc(Cl)cc3C2)CCCC1 [Example 62, N-(1-{[(7-chloro-3,4-dihydroisoquinolin-2(1H)-yl)-sulfonyl]methyl}cyclopentyl)-N-hydroxyformamide] | 20 ± 9
– | – | O=CN(O)C(CS(=O)(=O)N1CCc2ccc(-c3ccsc3)cc2C1)C1CCCC1 (centres unmarked) [Example 68, N-(1-cyclopentyl-2-{[7-(3-thienyl)-3,4-dihydroisoquinolin-2(1H)-yl]sulfonyl}ethyl)-N-hydroxyformamide] | 33 ± 7
– | – | O=CN(O)C(CS(=O)(=O)N1Cc2ccccc2C1)C1CC1 (centres unmarked) [Example 72, N-[1-cyclopropyl-2-(1,3-dihydro-2H-isoindol-2-ylsulfonyl)-ethyl]-N-hydroxyformamide] | 41 ± 7
– | – | O=CN(O)C(CS(=O)(=O)N1CCc2ccc(-c3ccc(F)cc3)cc2C1)C1CC1 (centres unmarked) [Example 75, N-(1-cyclopropyl-2-{[7-(4-fluorophenyl)-3,4-dihydro-isoquinolin-2(1H)-yl]sulfonyl}ethyl)-N-hydroxyformamide] | 26 ± 11
– | – | O=CN(O)C(CCC(F)(F)F)CS(=O)(=O)N1CCc2ccc(Cl)cc2C1 (centres unmarked) [Example 76, N-(1-{[(7-chloro-3,4-dihydroisoquinolin-2(1H)-yl)-sulfonyl]methyl}-4,4,4-trifluorobutyl)-N-hydroxyformamide] | 45 ± 11
– | – | O=CN(O)C(CS(=O)(=O)N1CCc2ccc(-c3ccncc3)cc2C1)C1CCCC1 (centres unmarked) [Example 79, N-{1-cyclopentyl-2-[(7-pyridin-4-yl-3,4-dihydroisoquinolin-2(1H)-yl)sulfonyl]ethyl}-N-hydroxyformamide] | 43 ± 10
